Measurements reported in paper PMC7313459, “Insights into the Mn^2+ Binding Site in the Agmatinase-Like Protein (ALP): A Critical Enzyme for the Regulation of Agmatine Levels in Mammals” (International Journal of Molecular Sciences, 2020).

Target: T1, central-ALP (Rattus norvegicus, UniProt A0A8I6ASI2)
T1 construct: gene Limch1
Assay: urea formation, colorimetric (alpha-isonitrosopropiophenone, […] nm)
Type: biochemical
Conditions: 5 mM MnCl2, 50 mM glycine-NaOH pH 9.0, 37 °C; not pre-heated

T1 sequence (A0A8I6ASI2 141-351): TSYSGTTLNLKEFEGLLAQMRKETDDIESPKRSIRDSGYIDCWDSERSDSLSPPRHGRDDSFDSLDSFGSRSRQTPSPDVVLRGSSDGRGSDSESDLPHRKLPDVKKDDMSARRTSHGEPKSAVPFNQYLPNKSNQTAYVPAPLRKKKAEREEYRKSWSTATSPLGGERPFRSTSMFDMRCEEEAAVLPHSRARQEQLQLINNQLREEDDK

N=C(N)NCCCCN [agmatine, 1-amino-4-guanidinobutane]
Km: 1200 ± 370 µM
